Where “and” joins values, the source holds several entries; their conditions need not be identical. Equal values may be shown once. Entries after “also recorded” stand apart in the source; their conditions may differ. Values belong to the compound of their own block, whether it stands above or below them.
How the values were obtained:
H3R = H3R (Homo sapiens, UniProt Q9Y5N1); test: CRE luciferase reporter assay for H3R antagonistic activity; assay type: cell-based
Method: Firstly, all the target compounds were screened at 5 μM and 50 μM. […] The detailed experimental operations refer to the previous paper.

[1] = tested on: maximal electroshock seizure (MES) model; test: Maximal electroshock seizure (MES) model; assay type: in vivo; settings: mice; for Protection in MES model at lowest dosage: 3 mg/kg, compared to control (saline); for Duration of tonic hind limb extension (THLE), protection in MES model: i.p., compared to control group; for Dose dependence of protection in MES model: doses of 3, 10 and 30 mg/kg
Method: One of the two test models is the MES seizure model, another is the PTZ-induced seizure model. […] In addition, the administration of this dosage can minimize the impact of other possible side effects such as central inhibition and cardiac toxicity. […] In addition, the tested dose of VPA was 300 mg/kg. It could be seen that all animals in the control group experienced hindlimb stiffness after the electrical stimulation in the MES model. In the treated group, the definition of protection was the reduction or vanishing of the tonic hind limb extension (THLE) in mice. […] The neurological safety of the compounds 2h, 4a, and 4b was evaluated by the rotarod test. In the MES test, the definition of protection was the reduction or vanishing of the THLE in mice. In the PTZ test, the seizures were induced through the subcutaneous administration of PTZ (85 mg/kg). The antiseizure activities of the compounds in the PTZ test were evaluated by comparing the convulsion scores in mice between taking the compounds or not. VPA and PIT were used as positive drugs. To explore the anticonvulsive mechanism, compound 4a (10 mg/kg) was co-injected with RAMH (10 mg/kg). In addition, the THLE was recorded and compared with that of the mice treated by compound 4a alone. The detailed experimental operations in the MES, PTZ, and rotarod tests refer to our previous paper. All the animal experiments were carried out on 4-week-old KunMing male mice weighing from 20 to 25 g. The mice were housed collectively in polycarbonate cages in groups of 30, where they were maintained on a 12 h light/dark cycle in a temperature controlled (25 ± 2 °C) laboratory with free access to food and water. In the MES and PTZ models, seven animals were used in each group. In the rotarod test, three animals were used in each group. Each animal was used only once. All the experiments referring to animals were applied according to the Guide for the Care and Use of Laboratory Animals and were approved by the Medical Ethics Committee of Jinggangshan University, approval number: 220811002.

[2] = Rotarod test for neurotoxicity; assay type: in vivo; settings: mice; for Death of treated animals: 300 mg/kg; for Neurotoxicity: rotarod test, i.p., three animals per group
Method: A rotarod test was carried out to estimate the neurological safety of compounds 2h, 4a, and 4b.
The neurological safety of the compounds 2h, 4a, and 4b was evaluated by the rotarod test. In the MES test, the definition of protection was the reduction or vanishing of the THLE in mice. In the PTZ test, the seizures were induced through the subcutaneous administration of PTZ (85 mg/kg). The antiseizure activities of the compounds in the PTZ test were evaluated by comparing the convulsion scores in mice between taking the compounds or not. VPA and PIT were used as positive drugs. To explore the anticonvulsive mechanism, compound 4a (10 mg/kg) was co-injected with RAMH (10 mg/kg). In addition, the THLE was recorded and compared with that of the mice treated by compound 4a alone. The detailed experimental operations in the MES, PTZ, and rotarod tests refer to our previous paper. All the animal experiments were carried out on 4-week-old KunMing male mice weighing from 20 to 25 g. The mice were housed collectively in polycarbonate cages in groups of 30, where they were maintained on a 12 h light/dark cycle in a temperature controlled (25 ± 2 °C) laboratory with free access to food and water. In the MES and PTZ models, seven animals were used in each group. In the rotarod test, three animals were used in each group. Each animal was used only once. All the experiments referring to animals were applied according to the Guide for the Care and Use of Laboratory Animals and were approved by the Medical Ethics Committee of Jinggangshan University, approval number: 220811002.

[3] = tested on: maximal electroshock seizure (MES) model; parameters: method as in PMID 33325568; settings: administrated combined with H3R agonist RAMH; cited from earlier work
[4] = tested on: PTZ-induced seizure model; test: Pentylenetetrazole (PTZ)-induced seizure model; assay type: in vivo; settings: mice, 300 mg/kg, i.p.; PTZ 85 mg/kg s.c.
Method: One of the two test models is the MES seizure model, another is the PTZ-induced seizure model. […] In addition, the administration of this dosage can minimize the impact of other possible side effects such as central inhibition and cardiac toxicity. […] In addition, the tested dose of VPA was 300 mg/kg. The PTZ model was usually used to screen the antiepileptic candidates for the absence of seizures. In this work, compounds 2a-2i, 3a-3c, and 4a-4b were also evaluated for their antiseizure action in the PTZ model in mice, while using VPA as the positive drug. […] The failure of synthesized compounds in the PTZ model is expected because our previously reported H3R inhibitors were also ineffective in the PTZ model. […] A considerable increase in histamine levels was found in the brain after MES-induced seizures, whereas a tendency toward a decrease in histamine levels was observed after PTZ-kindled convulsions. […] The neurological safety of the compounds 2h, 4a, and 4b was evaluated by the rotarod test. In the MES test, the definition of protection was the reduction or vanishing of the THLE in mice. […] The antiseizure activities of the compounds in the PTZ test were evaluated by comparing the convulsion scores in mice between taking the compounds or not. […] In addition, the THLE was recorded and compared with that of the mice treated by compound 4a alone. […]

Chain of H3R (Q9Y5N1 whole entry, species assumed): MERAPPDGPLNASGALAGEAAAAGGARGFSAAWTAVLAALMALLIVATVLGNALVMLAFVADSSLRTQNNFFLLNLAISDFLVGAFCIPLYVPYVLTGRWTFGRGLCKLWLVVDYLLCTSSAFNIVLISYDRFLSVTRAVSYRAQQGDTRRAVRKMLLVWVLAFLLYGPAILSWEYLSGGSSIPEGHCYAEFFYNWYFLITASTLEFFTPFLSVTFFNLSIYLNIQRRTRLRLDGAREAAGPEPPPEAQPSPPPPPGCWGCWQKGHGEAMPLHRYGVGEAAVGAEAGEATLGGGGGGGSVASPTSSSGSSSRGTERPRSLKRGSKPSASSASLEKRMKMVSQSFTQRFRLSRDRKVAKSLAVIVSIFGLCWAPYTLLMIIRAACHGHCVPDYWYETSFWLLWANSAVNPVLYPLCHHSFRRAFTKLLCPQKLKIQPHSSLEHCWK

IC50 (H3R): 7.49 µM
melting point: 147 to 149 °C
Structure (SMILES): O=C1CCc2cc(OCCN3CCCCC3)ccc2N1 [Compound 3a, 6-(2-(Piperidin-1-yl)ethoxy)-3,4-dihydroquinolin-2(1H)-one]

IC50 (H3R): 38.5 µM
melting point: 174 to 176 °C
Structure (SMILES): O=C1CCc2cc(OCCCN3CCC(c4ccccc4)CC3)ccc2N1 [Compound 2i, 6-(3-(4-Phenylpiperidin-1-yl)propoxy)-3,4-dihydroquinolin-2(1H)-one]

IC50 (H3R): 0.47 µM
melting point: 120 to 122 °C
Structure (SMILES): O=C1CCc2cc(OCCCN3CCCC3)ccc2N1 [Compound 2c, 6-(3-(Pyrrolidin-1-yl)propoxy)-3,4-dihydroquinolin-2(1H)-one hydrochioride]
Duration of tonic hind limb extension (THLE), protection in MES model ([1]; 10 mg/kg): no significant difference

IC50 (H3R): 25.6 µM
melting point: 199 to 201 °C
Structure (SMILES): O=C1CCc2cc(OCCCN3CCN(c4ccccc4)CC3)ccc2N1 [Compound 2f, 6-(3-(4-Phenylpiperazin-1-yl)propoxy)-3,4-dihydroquinolin-2(1H)-one]

IC50 (H3R): > 50 µM
melting point: 150 to 151 °C
Structure (SMILES): O=C1CCc2cc(OCCCCCN3CCCCC3)ccc2N1 [Compound 3c, 6-((5-(Piperidin-1-yl)pentyl)oxy)-3,4-dihydroquinolin-2(1H)-one]

IC50 (H3R): 38.1 µM
melting point: 159 to 160 °C
Structure (SMILES): CN1CCN(CCCOc2ccc3c(c2)CCC(=O)N3)CC1 [Compound 2e, 6-(3-(4-Methylpiperazin-1-yl)propoxy)-3,4-dihydroquinolin-2(1H)-one]

IC50 (H3R): 0.52 µM
melting point: 68 to 70 °C
Structure (SMILES): CCN(CC)CCCOc1ccc2c(c1)CCC(=O)N2 [Compound 2a, 6-(3-(Diethylamino)propoxy)-3,4-dihydroquinolin-2(1H)-one hydrochioride]
Duration of tonic hind limb extension (THLE), protection in MES model ([1]; 10 mg/kg): no significant difference

IC50 (H3R): 46 µM
melting point: 146 to 147 °C
Structure (SMILES): O=C1CCc2cc(OCCCN3CCOCC3)ccc2N1 [Compound 2g, 6-(3-(Morpholino)propoxy)-3,4-dihydroquinolin-2(1H)-one]

Further lines, the compound ahead of its results:

Structure (SMILES): O=C1CCc2cc(OCCCN3CCCCC3)ccc2N1 [Compound 2h, 6-(3-(Piperidin-1-yl)propoxy)-3,4-dihydroquinolin-2(1H)-one]
IC50 (H3R): 0.12 µM
Protection in MES model at lowest dosage [1]: no significant difference
Duration of tonic hind limb extension (THLE), protection in MES model ([1]; 10 mg/kg, 10 mg/kg): decreased the duration of THLE significantly; also recorded: antiseizure activity
Dose dependence of protection in MES model [1]: dose-dependent manner
Death of treated animals [2]: all animals
Neurotoxicity ([2]; 10 mg/kg): 0/3
Neurotoxicity ([2]; 30 mg/kg): 0/3
Neurotoxicity ([2]; 100 mg/kg, 100 mg/kg): one mouse in three and 1/3

Structure (SMILES): O=C1CCc2cc(OCCCN3CCNCC3)ccc2N1 [Compound 2d, 6-(3-(Piperazin-1-yl)propoxy)-3,4-dihydroquinolin-2(1H)-one]
IC50 (H3R): > 50 µM
melting point: 150 to 151 °C

Structure (SMILES): CCCCCN1C(=O)CCc2cc(OCCCN3CCCCC3)ccc21 [Compound 4b, 1-Pentyl-6-(3-(piperidin-1-yl)propoxy)-3,4-dihydroquinolin-2(1H)-one]
IC50 (H3R): 1.91 µM
Protection in MES model at lowest dosage [1]: no significant difference
Duration of tonic hind limb extension (THLE), protection in MES model ([1]; 10 mg/kg, 10 mg/kg): decreased the duration of THLE significantly; also recorded: antiseizure activity
Dose dependence of protection in MES model [1]: dose-dependent manner
Death of treated animals [2]: two-thirds of mice
Neurotoxicity ([2]; 10 mg/kg): 0/3
Neurotoxicity ([2]; 30 mg/kg): 0/3
Neurotoxicity ([2]; 100 mg/kg, 100 mg/kg): no neurotoxicity and 0/3

Structure (SMILES): CCCN(CCC)CCCOc1ccc2c(c1)CCC(=O)N2.Cl [Compound 2b, 6-(3-(Dipropylamino)propoxy)-3,4-dihydroquinolin-2(1H)-one hydrochloride]
IC50 (H3R): > 50 µM
melting point: 57 to 59 °C

Structure (SMILES): Cc1nc(-c2ccc(OCCCN3CCCCC3)cc2)co1 [I]
Antiseizure activity in MES test when combined with RAMH [3]: completely vanished

Structure (SMILES): O=C1CCc2cc(OCCCCN3CCCCC3)ccc2N1 [Compound 3b, 6-(4-(Piperidin-1-yl)butoxy)-3,4-dihydroquinolin-2(1H)-one]
IC50 (H3R): 2.88 µM
melting point: 150 to 151 °C

Structure (SMILES): CCCC(CCC)C(=O)[O-].[Na+] [VPA, valproic sodium, reference compound]
Duration of tonic hind limb extension (THLE), protection in MES model ([1]; 300 mg/kg): decreased the duration of THLE significantly
Protection against seizures induced by PTZ (seizure score) [4]: fully inhibited the seizure induced by PTZ

Structure (SMILES): CCCN1C(=O)CCc2cc(OCCCN3CCCCC3)ccc21 [Compound 4a, 6-(3-(Piperidin-1-yl)propoxy)-1-propyl-3,4-dihydroquinolin-2(1H)-one]
IC50 (H3R): 0.37 µM
Protection in MES model at lowest dosage [1]: no significant difference
Duration of THLE in MES model when combined with H3R agonist RAMH ([1]; 10 mg/kg i.p., co-injected with RAMH 10 mg/kg i.p.): fully vanished; also recorded: cannot decrease the duration of THLE
Duration of tonic hind limb extension (THLE), protection in MES model ([1]; 10 mg/kg, 10 mg/kg): decreased the duration of THLE significantly; also recorded: antiseizure activity
Dose dependence of protection in MES model [1]: dose-dependent manner
Death of treated animals [2]: two-thirds of mice
Neurotoxicity ([2]; 10 mg/kg): 0/3
Neurotoxicity ([2]; 30 mg/kg): 0/3
Neurotoxicity ([2]; 100 mg/kg, 100 mg/kg): no neurotoxicity and 0/3
